The test system of series [1] is capsaicin‐induced excitability in murine nociceptors. The series is described as follows: Multielectrode array (MEA): capsaicin-induced firing in nociceptors. Format: cell-based. As to conditions: 1 μM compound, 0.5 μM capsaicin, P2/P1. On the procedure: Additionally, we investigated the effect of compound 23 on capsaicin and AITC‐induced excitability in murine nociceptors. Employing an IC50 value of 1 μM for TRPV1 and 5 μM for TRPA1 of firing inhibition by compound 23 (Fig. 4), we interrogated its ability to modulate neuronal excitability. As for TRPM8, our experimental design involved a protocol of dual agonist pulses interspersed with a washing pulse to minimize agonist‐induced channel desensitization. Compound 23 was administered 1 min prior to and during the second agonist pulse.
Primary cultures of neonatal dorsal root ganglia were used for multielectrode array (MEA) and patch‐clamp experiments following established methodologies previously described. Neonatal dorsal root ganglia (DRGs) were obtained from Wistar rats (3–5 days old) and were isolated and digested with 0.25% (w/v) collagenase (type IA) in DMEM GlutaMax with 1% (v/v) penicillin/streptomycin (P/S) solution for 1 h at 37 °C in a 5% CO2 Thermo Scientific incubator. Following digestion, DRGs were mechanically dissociated and passed through a 100 μm cell strainer to obtain single‐cell suspensions. Suspensions were washed with DMEM GlutaMax with 10% (v/v) fetal bovine serum (FBS) and 1% (v/v) penicillin/streptomycin (P/S). Cells were then seeded in microelectrode array chambers coated with poly‐L‐lysine (8.3 μg·mL^−1) and laminin (5 μg·mL^−1). […]

Series [2] in a line: Metabolic stability in mouse plasma. It counts as in vitro ADME. As to conditions: after 1 h at 37 °C, 100 μM substrate. On the procedure:
(§1) Because of the lack of systemic activity of compound 23, we evaluated the in vitro plasmatic and hepatic metabolic stability. To this aim, compound 23 was exposed to mouse plasma and mouse liver microsome (MLM) fractions, and the residual substrate was measured after 1 h. Under these conditions, the residual substrate was about 97% and 90% in plasma and microsomes, respectively, denoting that this molecule suffers from mild hydrolysis of the ester group.
The standard incubation mixture (100 μL final volume) was carried out by dissolving the tested substrate (100 μM) in DMSO (5% final volume) in preincubated plasma at 37 °C. The mixture was shaken for 60 min at 37 °C. Control incubations were carried out without substrate. Each incubation was stopped by addition of 200 μL of ice‐cold acetonitrile, vortexed, and centrifuged at 13 000 r.p.m. for 10 min. The supernatants were analyzed by LC‐UV [68].
(§2) The metabolic stability of the compound 23 was determined in vitro by measuring the residual peak area after incubation by LC‐UV analysis. Samples were further processed by LC‐HRMS equipment for metabolite profiling. Raw data files were processed using both XCALIBUR® and COMPOUND DISCOVERER 3.2® software (Thermo Scientific) using a customized workflow for the detection and identification of the expected and unknown metabolites (Fig. S80).

Series [3] in a line: Metabolic stability and metabolite profile in mouse liver microsomes (MLM). It counts as in vitro ADME. The following applies: after 1 h at 37 °C, 50 μM substrate. On the procedure:
as §1
Metabolic biotransformation of compound 23 was investigated by tandem high‐resolution mass spectrometry using the software COMPOUND DISCOVERER 3.2™.
The standard incubation mixture (250 μL final volume) was carried out in a 50 mM Tris (tris[hydroxymethyl]aminomethane) buffer (pH 7.4) containing 150 mM KCl, […], 3.3 mM MgCl2, 1.3 mM NADPNa2, 3.3 mM glucose 6‐phosphate, 0.4 units·mL^−1 glucose 6‐phosphate dehydrogenase, acetonitrile as cosolvent (1% of total volume), and the substrate (50 μM). After pre‐equilibration of the mixture, an appropriate volume of MLM suspension was added to give a final protein concentration of 1.0 mg·mL^−1. The mixture was shaken for 60 min at 37 °C using a horizontal shaking thermostatic bath while protecting the samples from light. Control incubations were carried out without the presence of substrate, or NADPH regenerating system, or microsomes. Each incubation was stopped by the addition of 250 μL of ice‐cold acetonitrile, vortexed, and centrifuged at 13 000 r.p.m. for 5 min [68]. The supernatants were analyzed by LC‐UV and LC‐HRMS equipment (see Tables S1 and S2, Fig. S79 for full parameters setting in the Supporting Information).
as §2
A general note: Microsomes from liver hold many membrane-bound enzymes, among them those of drug oxidation.

These results are taken from article PMC12220852, “An adamantane‐based ligand as a novel chemical tool for thermosensory TRPM8 channel therapeutic modulation” (The Febs Journal, 2025).

For `O=C(COC(=O)c1ccccc1-c1ccccc1)NC12CC3CC(CC(C3)C1)C2` [Compound 23, 2‐((3S,5S,7S)‐adamantan‐1‐ylamino)‐2‐oxoethyl [1,1′‐biphenyl]‐2‐carboxylate], the “attenuation of capsaicin‐induced firing” value in series [1] is reported as 30%. The “residual substrate in mouse plasma” value in series [2] was “about 97%”. Further, in series [3], the “residual substrate in mouse liver microsomes without NADPH regenerating system” value is reported as approximately 90%. Also, the “residual substrate in mouse liver microsomes with NADPH regenerating system” value in series [3] (monooxygenase system activated) is on record as “about 42%”.
